The values that follow are results of earlier work, collected in patent US12455270B2, “Mesh for dissolution test” (Shionogi & Co., Ltd., priority 2019, dated 2025).

For data set [1] the following is noted: input parameter of GastroPlus simulation.
For data set [2] the following is noted: input parameter of GastroPlus simulation. The source holds these as a separate data set.

Broadly, the logP is a log measure of how a compound divides between an organic and an aqueous phase. Turning to `NC(=O)N1c2ccccc2C=Cc2ccccc21` [Carbamazepine], the logP in data set [1] is listed as 1.8. Further, in data set [2], the CL is listed as 0.9087 L/h, the “Plasma Fup” value is given as 28.8%, the Vc is given as 0.6971 L/kg and the k12 is 0.165 h⁻¹.

`Cc1ccc(-c2cc(C(F)(F)F)nn2-c2ccc(S(N)(=O)=O)cc2)cc1` [Celecoxib]: the logP in data set [1] is given as 4.21. For the same compound, in data set [2], the CL was 28.558 L/h, the “Plasma Fup” value was 2.1%, the Vc is 1.0902 L/kg and the k12 was 0.1955 h⁻¹. Also, in data set [2], the k21 was 0.07268 h⁻¹.
